Like-named read-outs stand apart in the source and are kept apart here.
Tests used:
[1] = tested on: H1975 lung cancer cell line; assay: Cancer cell growth inhibition, H1975 (celltiter); conditions: Homo sapiens, NCI-H1975, 48 h, read-out: IC50 (nM) H1975
Procedure: The medium was removed from each well of the 96-well plate.
In case of H1975, the cells were diluted with a culture medium to a concentration of 50,000 cells/ml. 100 μl of the diluted cell solution was added to each well of a 96-well plate, and, after 1 day, was washed with a mixture of RPMI, 0.1% FBS and 1% penicillin-streptomycin (PS), followed by replacement of the medium. The plate was allowed to be kept overnight and be treated to various concentrations under the same medium condition for 48 hrs. Similarly to an MTT assay, 15 μl of a celltiter one shot solution (Promega) was added to each well, which was incubated for 2 to 3 hrs, and, then, the absorbance at 490 nm was determined.

[2] = tested on: SW-620 colon/rectal cancer cell line; assay: Cancer cell growth inhibition, SW-620 (SRB); conditions: Homo sapiens, SW-620, 72 h, read-out: IC50 (nM) SW-620
[3] = molecular target: EGFR (EGFR type 1 kinase, Upstate) (Homo sapiens, UniProt P00533); assay: Inhibition of EGFR enzyme (fluorescence polarization kinase assay); conditions: read-out: IC50 (nM) EGFR; EGFR type 1 kinase, ATP 50 μM
EGFR (EGFR type 1 kinase, Upstate), sequence (P00533 25-1210): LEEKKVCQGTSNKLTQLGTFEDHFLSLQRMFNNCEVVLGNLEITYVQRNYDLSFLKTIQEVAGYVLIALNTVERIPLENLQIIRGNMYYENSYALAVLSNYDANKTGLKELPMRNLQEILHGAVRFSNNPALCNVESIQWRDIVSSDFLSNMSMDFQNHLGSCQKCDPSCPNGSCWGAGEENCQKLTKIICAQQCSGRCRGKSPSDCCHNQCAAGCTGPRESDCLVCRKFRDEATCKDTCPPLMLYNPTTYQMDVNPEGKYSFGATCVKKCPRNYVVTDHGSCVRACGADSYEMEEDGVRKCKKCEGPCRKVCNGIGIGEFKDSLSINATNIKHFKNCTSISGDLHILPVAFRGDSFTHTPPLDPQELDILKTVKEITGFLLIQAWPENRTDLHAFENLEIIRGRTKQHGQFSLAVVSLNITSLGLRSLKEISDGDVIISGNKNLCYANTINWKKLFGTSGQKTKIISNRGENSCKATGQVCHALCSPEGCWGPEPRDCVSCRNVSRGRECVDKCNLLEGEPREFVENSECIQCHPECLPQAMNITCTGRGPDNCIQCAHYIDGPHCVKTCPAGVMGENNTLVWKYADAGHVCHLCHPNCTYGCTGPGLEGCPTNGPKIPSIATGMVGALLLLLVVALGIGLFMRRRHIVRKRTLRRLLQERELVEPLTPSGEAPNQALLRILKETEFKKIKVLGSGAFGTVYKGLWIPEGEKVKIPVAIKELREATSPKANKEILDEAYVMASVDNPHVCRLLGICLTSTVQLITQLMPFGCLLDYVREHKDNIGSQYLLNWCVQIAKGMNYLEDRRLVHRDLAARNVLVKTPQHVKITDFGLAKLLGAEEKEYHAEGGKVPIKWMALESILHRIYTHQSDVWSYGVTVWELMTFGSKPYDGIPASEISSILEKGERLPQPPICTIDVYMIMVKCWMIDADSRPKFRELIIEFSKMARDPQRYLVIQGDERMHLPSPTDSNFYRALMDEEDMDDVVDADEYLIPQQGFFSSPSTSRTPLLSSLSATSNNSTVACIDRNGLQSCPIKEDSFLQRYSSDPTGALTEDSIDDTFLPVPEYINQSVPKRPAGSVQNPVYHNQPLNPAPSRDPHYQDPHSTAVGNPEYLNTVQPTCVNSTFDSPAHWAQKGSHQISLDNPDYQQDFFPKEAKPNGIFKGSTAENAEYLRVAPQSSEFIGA
Procedure: 10 μl of an EGFR (EGFR type 1 kinase, Upstate, 10 ng/μl) was added to each well of a 96-well plate. […] The calculation and analysis of IC50 were carried out by using Microsoft Excel.

EGFR T790M kinase = EGFR T790M kinase (Homo sapiens, UniProt P00533, T790M); assay: Inhibition of EGFR mutant enzyme (T790M)
EGFR T790M kinase, sequence (P00533 25-1210 T790M): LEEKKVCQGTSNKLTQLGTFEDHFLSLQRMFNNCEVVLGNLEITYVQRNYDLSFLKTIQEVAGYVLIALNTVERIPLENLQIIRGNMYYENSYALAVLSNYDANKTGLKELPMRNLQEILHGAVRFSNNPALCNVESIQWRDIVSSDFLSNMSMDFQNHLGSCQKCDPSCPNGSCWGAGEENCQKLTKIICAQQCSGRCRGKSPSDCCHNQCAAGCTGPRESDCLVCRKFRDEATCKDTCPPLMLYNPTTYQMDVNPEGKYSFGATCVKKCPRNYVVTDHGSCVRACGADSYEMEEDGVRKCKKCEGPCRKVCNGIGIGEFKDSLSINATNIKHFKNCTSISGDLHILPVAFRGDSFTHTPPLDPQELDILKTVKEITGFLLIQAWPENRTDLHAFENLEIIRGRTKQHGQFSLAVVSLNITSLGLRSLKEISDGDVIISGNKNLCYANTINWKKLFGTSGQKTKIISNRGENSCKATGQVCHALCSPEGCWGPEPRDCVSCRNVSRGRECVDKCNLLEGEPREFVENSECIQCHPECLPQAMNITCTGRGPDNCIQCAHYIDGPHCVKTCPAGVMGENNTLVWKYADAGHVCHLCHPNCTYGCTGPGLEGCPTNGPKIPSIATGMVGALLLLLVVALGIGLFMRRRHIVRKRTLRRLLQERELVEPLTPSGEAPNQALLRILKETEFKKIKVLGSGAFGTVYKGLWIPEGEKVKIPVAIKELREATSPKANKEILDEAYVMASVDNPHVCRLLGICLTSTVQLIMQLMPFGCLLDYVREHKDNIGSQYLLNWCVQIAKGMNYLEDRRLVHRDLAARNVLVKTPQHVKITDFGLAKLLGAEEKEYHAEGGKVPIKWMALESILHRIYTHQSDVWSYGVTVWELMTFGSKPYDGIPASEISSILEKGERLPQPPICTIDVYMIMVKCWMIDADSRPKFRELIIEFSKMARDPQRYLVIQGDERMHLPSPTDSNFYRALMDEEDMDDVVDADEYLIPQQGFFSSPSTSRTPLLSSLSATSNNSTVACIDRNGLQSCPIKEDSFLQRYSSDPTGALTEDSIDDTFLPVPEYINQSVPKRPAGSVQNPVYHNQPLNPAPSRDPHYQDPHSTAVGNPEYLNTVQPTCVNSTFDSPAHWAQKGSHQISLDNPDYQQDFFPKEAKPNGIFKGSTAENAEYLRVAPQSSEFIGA

[4] = tested on: SK-Br3 breast cancer cell line; assay: Cancer cell growth inhibition, SK-Br3 (SRB); conditions: Homo sapiens, SK-BR-3, 72 h, read-out: ID50 (nM) SK-Br3
[5] = tested on: A431 skin cancer cell line; assay: Cancer cell growth inhibition, A431 (SRB); conditions: Homo sapiens, A-431, 72 h, read-out: ID50 (nM) A431
EGFR = molecular target: T1, EGFR (Homo sapiens, UniProt P00533); assay: Prolongation study in A431 cells (EGFR phosphorylation inhibition); type: cell-based; conditions: A-431, 1 μM for 4 hrs, then washed, EGF 100 ng/ml
T1 construct: A skin cancer cell line, A431 (ATCC: CRL-1555), was used; endogenous in cells; host or cells: A431 (ATCC: CRL-1555)
T1 sequence (P00533 25-1210): as the sequence (P00533 25-1210) above
Procedure: A skin cancer cell line, A431 (ATCC: CRL-1555), was used to test the degrees of the inventive compounds in inhibiting EGFR's phosphorylation and the prolongation of ability to inhibit it thereof.
The cell line was incubated in a culture flask at 37° C. under 95% air and 5% CO2 using a culture medium containing DMEM, 10% FBS and 1% PS. When more than 90% of the total volume of the culture flask became filled with cells, the cultured cell solution was subject to secondary incubation and was poured to each well of a 6-well plate to the extent of 500,000 cells/well. After 24 hrs, the cells were separated from the solution, washed with PBS, and incubated in a culture medium containing DMEM, 0.1% FBS and 1% PS for 16 hrs. The compounds obtained in Examples 1, 17, 19 and 36, and Tarceva as EGFR phosphorylation inhibitors were each added to the cell-containing well to a concentration of 1 μM. After 4 hrs, the cells were separated from the solution, washed 4 times with PBS after every 0, 2, 4 and 8 hrs, and incubated in a culture medium containing DMEM, 0.1% FBS and 1% PS. […] Just before the completion of the reaction, the cultured cell solution was treated with a 100 ng/ml concentration of EGF (Sigma, Cat No. E9644) for 5 mins to induce the activation of EGFR. After the completion of the reaction, the well plate holding the cultured cells was stored at −70° C. In control groups, the replacement of the medium was performed instead of the addition of the EGFR phosphorylation inhibitor, wherein the induction of EGFR activation using EGF was made only in a positive control group and not made in a negative control group.
For Western blot and enzyme immune measuring (ELISA) methods, the well plate stored at −70° C. was allowed to melt to room temperature, and then protein was extracted from the cells in the well plate using a protein extract buffer. The extraction of the protein was performed as follows: 250 μl of the protein extract buffer (Phosphosafe extraction reagent, Calbiochem, Cat No. 71296-3) comprising protease inhibitor cocktail was added to each cell-containing well, which was stirred at room temperature for 5 mins. The cells were collected using a cell scraper and put in an 1.5 ml tube, which was centrifuged at a speed of 16,000×g for 5 mins. The upper layer thus obtained was separated, of which the protein content was determined by a protein assay kit (Bio-rad, Cat No. 500-0116). The protein extracted was diluted with PBS to a concentration of 0.8 mg/ml.
A human EGFR (py1173) immunoassay kit (Biosource, Cat No. KHR9071) was used in the enzyme immune measuring method. 100 μl of the sample which was diluted by 4 folds with a standard dilution buffer in a kit was added to a strip well, which was incubated at a 4° C. refrigerator overnight. The cultured cells was separated therefrom and washed 4 times with 200 μl of a washing buffer. 100 μl of the resulting primary antibody (anti-human EGFR [pY1173]) was put to each strip well, incubated at 37° C. for 1 hr, and washed 4 times with 200 μl of a washing buffer. The resulting secondary antibody (anti-rabbit IgG-HRP) was diluted by 100 folds with an HRP dilution buffer in a kit. 100 μl of the dilute was put to each strip well, incubated at 37° C. for 30 mins, and washed 4 times with 200 μl of the washing buffer. 100 μl of an HRP substrate in a kit was put to each strip well and incubated in a darkroom for 10 to 30 mins. 100 μl of a reaction stop solution was added thereto to terminate the reaction, and then, the absorbance at 450 nm was observed.
Electrophoresis and Western blot methods were conducted based on the conventional methods in the following: An LDS buffer was added to each sample, which was allowed to boil at 70° C. for 10 mins. 10 μl of the resulting solution was loaded to a 12-well gel (Nupage 4˜12% Bis-tris gel, Invitrogen), followed by 120 volt-electrophoresis in a buffer (MOPS electrophoresis buffer, Invitrogen, Cat No. NP0006-1) for 2 hrs. […]

[6] = read-out: IC50 (nM) T790M, EGFR T790M kinase
[7] = 0 hr after washing, read-out: EGFR phosphorylation inhibition in A431 cell line (%) 0 hr Avg.
[8] = 8 hrs after washing, read-out: EGFR phosphorylation inhibition in A431 cell line (%) 8 hrs Avg.
[9] = 24 hrs after washing, read-out: EGFR phosphorylation inhibition in A431 cell line (%) 24 hrs Avg.
[10] = 48 hrs after washing, read-out: EGFR phosphorylation inhibition in A431 cell line (%) 48 hrs Avg.
[11] = 72 hrs after washing, read-out: EGFR phosphorylation inhibition in A431 cell line (%) 72 hrs Avg.

| SMILES | IC50 [1] [nM] | IC50 [2] [nM] | IC50 [3] [nM] | IC50 (EGFR T790M kinase; [6]) [nM] | IC50 [4] [nM] | IC50 [5] [nM] | IC50 (EGFR T790M kinase) [nM] | inhibition at 1 µM (EGFR; [7]) [%] | inhibition at 1 µM (EGFR; [8]) [%] | inhibition at 1 µM (EGFR; [9]) [%] | inhibition at 1 µM (EGFR; [10]) [%] | inhibition at 1 µM (EGFR; [11]) [%] |
| --- | --- | --- | --- | --- | --- | --- | --- | --- | --- | --- | --- | --- |
| C=CC(=O)N1CC(Oc2cc3c(Nc4cccc(Cl)c4)ncnc3cc2OC)C1 [Example 26, 1-(3-(4-(3-chlorophenylamino)-7-methoxyquinazolin-6-yloxy)azetidin-1-yl)pro-2-pen-1-one] | 17.7 | > 5000 | 1.6 | 3.3 | 6 | 1.6 | – | – | – | – | – | – |
| C=CC(=O)N1CCC(Oc2cc3c(Nc4ccc(F)c(Cl)c4F)ncnc3cc2OCCOC)CC1 [Example 117, 1-(4-(4-(3-Chloro-2,4-difluorophenylamino)-7-(2-methoxyethoxy)quinazolin-6-yloxy)piperidin-1-yl)prop-2-en-1-one] | 47 | > 5000 | 0.7 | – | 1.4 | 4 | 3 | – | – | – | – | – |
| C=CC(=O)N1CC(Oc2cc3c(Nc4ccc(F)c(Cl)c4F)ncnc3cc2OC)C1 [Example 17, 1-(3-(4-(3-chloro-2,4-difluorophenylamino)-7-methoxyquinazolin-6-yloxy)azetidin-1-yl)pro-2-pen-1-one] | 1.5 | > 5000 | 0.7 | 0.8 | 0.3 | 0.3 | – | 87 | 88 | 62 | 31 | 0 |
| C=CC(=O)N1CC[C@H](Oc2cc3c(Nc4ccc(Br)c(Cl)c4F)ncnc3cc2OC)C1 [Example 7, 1-((3S)-3-(4-(4-bromo-3-chloro-2-fluorophenylamino)-7-methoxyquinazolin-6-yloxy)pyrrolidin-1-yl)pro-2-pen-1-one] | 55 | > 5000 | 10 | 8 | 8 | 5 | – | – | – | – | – | – |
| C=CC(=O)N1CC[C@H](Oc2cc3c(Nc4ccc(OCc5ccccn5)c(Cl)c4)ncnc3cc2OC)C1 [Example 10, 1-((3S)-3-(4-(3-chloro-4-(pyridin-2-ylmethoxy)phenylamino)-7-methoxyquinazolin-6-yloxy)pyrrolidin-1-yl)pro-2-pen-1-one] | – | > 5000 | 5 | 10 | 7 | 14 | – | – | – | – | – | – |
| C=CC(=O)N1CC[C@H](Oc2cc3c(Nc4ccc(F)c(Cl)c4F)ncnc3cc2OC)C[C@H]1C(N)=O [Example 120, (2S,4S)-1-acryloyl-4-(4-(3-chloro-2,4-difluorophenylamino)-7-methoxyquinazolin-6-yloxy)piperidin-2-carboxamide] | 5.2 | > 5000 | 1.4 | 0.7 | 1.3 | 3 | – | – | – | – | – | – |
| C=CC(=O)N1CCC(Oc2cc3c(Nc4cccc(Cl)c4F)ncnc3cc2OC)CC1 [Example 34, 1-(4-(4-(3-chloro-2-fluorophenylamino)-7-methoxyquinazolin-6-yloxy)piperidin-1-yl)pro-2-pen-1-one] | 22 | > 5000 | 6 | 5 | 0.2 | 2 | – | – | – | – | – | – |
| C=CC(=O)N1CC[C@@H](Oc2cc3c(Nc4ccc(F)c(Cl)c4F)ncnc3cc2OC)C[C@@H]1C(=O)OC [Example 133, (2R,4R)-methyl 1-acryloyl-4-(4-(3-chloro-2,4-difluorophenylamino)-7-methoxyquinazolin-6-yloxy)piperidin-2-carboxylate] | 5.4 | > 5000 | 4.4 | 1.7 | 0.2 | 0.7 | – | – | – | – | – | – |
| C=CC(=O)N1CC[C@H](Oc2ccc3ncnc(Nc4ccc(F)c(Cl)c4F)c3c2)C1 [Example 15, 1-((3S)-3-(4-(3-chloro-2,4-difluorophenylamino)quinazolin-6-yloxy)pyrrolidin-1-yl)pro-2-pen-1-one] | 413 | – | 9 | 54 | 25 | 5 | – | – | – | – | – | – |
| C=CC(=O)N1CC[C@H](Oc2ccc3ncnc(Nc4ccc(OCc5cccc(F)c5)c(Cl)c4)c3c2)C1 [Example 16, 1-((3S)-3-(4-(3-chloro-4-(3-fluorobenzyloxy)phenylamino)quinazolin-6-yloxy)pyrrolidin-1-yl)pro-2-pen-1-one] | – | > 5000 | 8 | 47 | 7 | 15 | – | – | – | – | – | – |
| C=CC(=O)N1CCC(Oc2cc3c(Nc4ccc(F)c(Cl)c4F)ncnc3cc2OC)CC1 [Example 19, 1-(4-(4-(3-chloro-2,4-difluorophenylamino)-7-methoxyquinazolin-6-yloxy)piperidin-1-yl)pro-2-pen-1-one] | 1.3 | > 5000 | 1.1 | 1.9 | 0.3 | 0.3 | – | 81 | 86 | 80 | 34 | 0 |
| C=CC(=O)N1CC(Oc2cc3c(Nc4cccc(Cl)c4F)ncnc3cc2OC)C1 [Example 23, 1-(3-(4-(3-chloro-2-fluorophenylamino)-7-methoxyquinazolin-6-yloxy)azetidin-1-yl)pro-2-pen-1-one] | 9 | > 5000 | 6 | 4 | 0.5 | 1.6 | – | – | – | – | – | – |
| C=CC(=O)N1CC[C@@H](Oc2cc3c(Nc4ccc(F)c(Cl)c4F)ncnc3cc2OC)C[C@@H]1C(N)=O [Example 135, (2R,4R)-1-acryloyl-4-(4-(3-chloro-2,4-difluorophenylamino)-7-methoxyquinazolin-6-yloxy)piperidin-2-carboxamide] | 5.2 | > 5000 | 4.1 | 0.7 | 0.2 | 0.8 | – | – | – | – | – | – |
| C=CC(=O)N1CC[C@H](Oc2cc3c(N[C@H](C)c4ccccc4)ncnc3cc2OC)C1 [Example 11] | 167 | – | 12 | 27 | 13 | 8 | – | – | – | – | – | – |
